Data on 24 compounds can be found in ChEMBL document CHEMBL2086273, “Significant activity of ecdysteroids on the resistance to doxorubicin in mammalian cancer cells expressing the human ABCB1 transporter” (J Med Chem, 2012).

Common to all, as to assay type: cell-based
For series [1], the target named is T1, ATP-dependent translocase ABCB1 (Homo sapiens, UniProt P08183). Briefly: Inhibition of human ABCB1 pump expressed in mouse L5178 cells assessed as fluorescence activity ratio at 20 uM for 10 mins by flow cytometry relative to control. To be noted: l5178, 10 min.
Series [2] deals with T1, ATP-dependent translocase ABCB1. Description: Inhibition of human ABCB1 expressed in mouse L5178 cells assessed as 95% inhibition of cell proliferation at compound-doxorubicin ratio of 20.4:1 after 48 hrs by MTT assay. The settings on record: l5178, 48 h.
Series [3] has the same target. Description: Inhibition of human ABCB1 expressed in mouse L5178 cells assessed as 75% inhibition of cell proliferation at compound-doxorubicin ratio of 20.4:1 after 48 hrs by MTT assay. To be noted: l5178, 48 h.
For series [4] the target is unchanged. Briefly: Inhibition of human ABCB1 expressed in mouse L5178 cells assessed as 50% inhibition of cell proliferation at compound-doxorubicin ratio of 20.4:1 after 48 hrs by MTT assay. The settings on record: l5178, 48 h.
For series [5] the target is unchanged. Briefly: Inhibition of human ABCB1 expressed in mouse L5178 cells assessed as 95% inhibition of cell proliferation at compound-doxorubicin ratio of 81.5:1 after 48 hrs by MTT assay. To be noted: l5178, 48 h.
Series [6] shares this target. Description: Inhibition of human ABCB1 expressed in mouse L5178 cells assessed as 75% inhibition of cell proliferation at compound-doxorubicin ratio of 81.5:1 after 48 hrs by MTT assay. To be noted: l5178, 48 h.
For series [7] the target is unchanged. Description: Inhibition of human ABCB1 expressed in mouse L5178 cells assessed as 50% inhibition of cell proliferation at compound-doxorubicin ratio of 81.5:1 after 48 hrs by MTT assay. The settings on record: l5178, 48 h.

T1 sequence (P08183 whole entry): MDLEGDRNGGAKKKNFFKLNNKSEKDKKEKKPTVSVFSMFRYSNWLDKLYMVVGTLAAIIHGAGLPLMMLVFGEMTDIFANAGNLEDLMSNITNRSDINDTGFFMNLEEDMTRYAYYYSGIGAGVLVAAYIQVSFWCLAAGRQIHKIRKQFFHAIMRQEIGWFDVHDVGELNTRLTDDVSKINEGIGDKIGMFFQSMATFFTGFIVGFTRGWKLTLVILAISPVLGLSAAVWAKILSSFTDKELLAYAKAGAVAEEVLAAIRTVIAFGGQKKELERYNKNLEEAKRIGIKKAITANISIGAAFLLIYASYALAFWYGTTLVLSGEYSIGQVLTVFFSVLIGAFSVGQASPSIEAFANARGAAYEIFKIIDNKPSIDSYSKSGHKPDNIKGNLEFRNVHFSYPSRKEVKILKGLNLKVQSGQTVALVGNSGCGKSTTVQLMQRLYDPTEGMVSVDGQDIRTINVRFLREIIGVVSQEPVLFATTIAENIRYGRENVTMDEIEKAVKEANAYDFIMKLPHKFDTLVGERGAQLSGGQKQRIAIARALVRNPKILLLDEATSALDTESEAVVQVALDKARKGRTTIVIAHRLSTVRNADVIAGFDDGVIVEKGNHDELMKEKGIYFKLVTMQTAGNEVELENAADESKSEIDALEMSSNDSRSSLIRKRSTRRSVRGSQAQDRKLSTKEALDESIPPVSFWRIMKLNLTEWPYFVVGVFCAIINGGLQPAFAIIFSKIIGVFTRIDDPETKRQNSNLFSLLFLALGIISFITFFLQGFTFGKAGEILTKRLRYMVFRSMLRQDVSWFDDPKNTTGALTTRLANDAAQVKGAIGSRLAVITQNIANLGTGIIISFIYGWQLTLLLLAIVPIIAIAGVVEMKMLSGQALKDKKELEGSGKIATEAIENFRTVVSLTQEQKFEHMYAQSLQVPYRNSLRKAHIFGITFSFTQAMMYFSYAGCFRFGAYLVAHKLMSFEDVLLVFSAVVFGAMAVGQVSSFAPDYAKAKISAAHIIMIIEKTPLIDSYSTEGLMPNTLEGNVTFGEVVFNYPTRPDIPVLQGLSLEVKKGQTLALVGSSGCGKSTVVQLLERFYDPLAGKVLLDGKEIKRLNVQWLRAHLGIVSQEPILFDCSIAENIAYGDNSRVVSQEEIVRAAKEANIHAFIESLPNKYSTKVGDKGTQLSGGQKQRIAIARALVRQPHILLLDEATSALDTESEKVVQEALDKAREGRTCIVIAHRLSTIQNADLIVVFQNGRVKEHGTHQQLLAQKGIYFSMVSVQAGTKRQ

On to `CC1(CC[C@H]2OC(C)(C)O[C@]2(C)[C@H]2CC[C@@]3(O)C4=CC(=O)[C@@H]5C[C@H]6OC(C)(C)O[C@H]6C[C@]5(C)[C@H]4CC[C@]23C)COC(C)(C)O1` (stereo partly drawn), for which, in series [1], the Ratio was 24.39. The “fractional inhibitory concentration index (FICI)” value in series [2] is recorded as 0.12; in series [3], 0.16; in series [4] it was 0.23.

For the compound `CC(=O)O[C@H]1C[C@@]2(C)[C@@H](C[C@H]1OC(C)=O)C(=O)C=C1[C@@H]2CC[C@]2(C)[C@@H]([C@@](C)(O)[C@@H](CCC(C)(C)OC(C)=O)OC(C)=O)CC[C@@]12O`, the Ratio in series [1] is 8.55. Further, the “fractional inhibitory concentration index (FICI)” value in series [2] is 0.13; in series [3], 0.29; in series [4], 0.73.

Turning to `CC(C)(O)CC[C@H]1OC(C)(C)O[C@]1(C)[C@H]1CC[C@@]2(O)C3=CC(=O)[C@H]4C[C@@H](O)CC[C@]4(C)[C@H]3CC[C@]12C`, the Ratio in series [1] was found to be 8.19. The results for the “fractional inhibitory concentration index (FICI)” value in series [5], in series [6] and in series [7] were 0.37, 0.69 and 1.28, respectively.

Consider `CC(C)(O)CC[C@H]1OC(C)(C)O[C@]1(C)[C@H]1CC[C@@]2(O)C3=CC(=O)[C@@H]4C[C@@H](O)[C@@H](O)C[C@]4(C)[C@H]3CC[C@]12C`, for which the Ratio in series [1] is 1.53. Further, the results for the “fractional inhibitory concentration index (FICI)” value in series [2], in series [3] and in series [4] were 0.35, 0.54 and 0.84, respectively.

Take `C[C@H]([C@H](O)CCC(C)(C)O)[C@H]1CC[C@@]2(O)C3=CC(=O)[C@@H]4C[C@@H](O)[C@@H](O)C[C@]4(C)[C@H]3CC[C@]12C` [ECDYSONE]: the Ratio in series [1] is 1.38. The “fractional inhibitory concentration index (FICI)” value was 12.16 in series [5], 4.89 in series [6] and 2.31 in series [7].

As to `CC(C)CC[C@H]1OC(C)(C)O[C@]1(C)[C@H]1CC[C@@]2(O)C3=CC(=O)[C@@H]4C[C@H]5OC(C)(C)O[C@H]5C[C@]4(C)[C@H]3[C@H](O)C[C@]12C`, the Ratio in series [1] is recorded as 46.49. In addition, the “fractional inhibitory concentration index (FICI)” value in series [2] is listed as 0.12; in series [3], 0.14; in series [4], 0.18.

As to `CC(C)CC[C@@H](O)[C@](C)(O)[C@H]1CC[C@@]2(O)C3=CC(=O)[C@@H]4C[C@@H](O)[C@@H](O)C[C@]4(C)[C@H]3CC[C@]12C` [PONASTERONE A], the Ratio in series [1] turned out to be 1.26. The “fractional inhibitory concentration index (FICI)” value in series [5] came to 0.44; in series [6], 0.78; in series [7], 1.41.

Take `CCC1=C(C)C(=O)O[C@@H]([C@](C)(O)[C@H]2CC[C@@]3(O)C4=CC(=O)[C@@H]5C[C@@H](O)[C@@H](O)C[C@]5(C)[C@H]4CC(=O)[C@]23C)C1` [AJUGALACTONE]: the Ratio in series [1] came to 0.87. In addition, the “fractional inhibitory concentration index (FICI)” value turned out to be 2.89 in series [5], 1.96 in series [6] and 1.43 in series [7].

With `CC(C)(O)CC[C@@H](O)[C@](C)(O)[C@H]1CC[C@@]2(O)C3=CC(=O)[C@@H]4C[C@@H](O)[C@@H](O)C[C@]4(C)C3=CC[C@]12C`, in series [1], the Ratio amounted to 1.24. For the same compound, the results for the “fractional inhibitory concentration index (FICI)” value in series [5], in series [6] and in series [7] were 4.61, 3.35 and 2.66, respectively.

For the compound `CC(C)(O)CC[C@@H](O)[C@](C)(O)[C@H]1CC[C@@]2(O)C3=CC(=O)[C@@H]4C[C@@H](O)[C@@H](O)C[C@]4(C)[C@H]3[C@H](O)C[C@]12C` [TURKESTERONE], the Ratio in series [1] is reported as 0.93. The figures for the “fractional inhibitory concentration index (FICI)” value in series [5], in series [6] and in series [7] were 4.2, 4.53 and 5.19, respectively.

As for `CC[C@H](C[C@H]1OC(C)(C)O[C@]1(C)[C@H]1CC[C@@]2(O)C3=CC(=O)[C@@H]4C[C@@H](O)[C@@H](O)C[C@]4(C)[C@H]3CC[C@]12C)C(C)(C)O`, in series [1], the Ratio is 1.21. Besides, the “fractional inhibitory concentration index (FICI)” value in series [5] is listed as 0.091; in series [6] it was 0.26; in series [7], 0.81.

Consider `CC(C)(O)CC[C@@H](O)[C@](C)(O)[C@H]1CC[C@@]2(O)C3=CC(=O)[C@@]4(O)C[C@@H](O)CC[C@]4(C)[C@H]3CC[C@]12C`, for which the Ratio in series [1] is listed as 1.21. Also, the “fractional inhibitory concentration index (FICI)” value was found to be 0.27 in series [5], 0.45 in series [6] and 0.78 in series [7].

Turning to `CC(C)(CC[C@@H](O)[C@](C)(O)[C@H]1CC[C@@]2(O)C3=CC(=O)[C@@H]4C[C@@H](O)CC[C@]4(C)[C@H]3CC[C@]12C)O[C@@H]1O[C@H](CO)[C@@H](O)[C@H](O)[C@H]1O`, the Ratio in series [1] is on record as 0.68. In addition, the “fractional inhibitory concentration index (FICI)” value is 0.51 in series [5], 0.72 in series [6] and 1.05 in series [7].

As for `C[C@H]([C@H](O)CCC(C)(C)O)[C@H]1CC[C@@]2(O)C3=CC(=O)[C@@H]4C[C@@H](O)CC[C@]4(C)[C@H]3CC[C@]12C`, the Ratio in series [1] came to 0.94. Also, the “fractional inhibitory concentration index (FICI)” value in series [5] was 0.81; in series [6] it was 1.27; in series [7] it was 2.05.

In the case of `CC(C)(O)CCC[C@](C)(O)[C@H]1CC[C@@]2(O)C3=CC(=O)[C@@H]4C[C@@H](O)[C@@H](O)C[C@]4(C)[C@H]3CC[C@]12C`, the Ratio in series [1] is 0.67. In addition, the “fractional inhibitory concentration index (FICI)” value is given as 1.59 in series [5], 1.75 in series [6] and 2.04 in series [7].

Turning to `CC(=O)O[C@H](CCC(C)(C)O)[C@](C)(O)[C@H]1CC[C@@]2(O)C3=CC(=O)[C@@H]4C[C@@H](O)[C@@H](O)C[C@]4(C)[C@H]3CC[C@]12C`, the Ratio in series [1] is recorded as 1.54. For the same compound, the “fractional inhibitory concentration index (FICI)” value in series [5] was 0.64; in series [6], 0.97; in series [7] it was 1.6.

Consider `CC(C)(O)CC[C@@H](O)[C@](C)(O)[C@H]1CC[C@@]2(O)C3=CC(=O)[C@H]4C[C@@H](O)[C@@H](O)C[C@]4(C)[C@H]3CC[C@]12C`, for which, in series [1], the Ratio turned out to be 0.81. Besides, the results for the “fractional inhibitory concentration index (FICI)” value in series [5], in series [6] and in series [7] were 0.37, 0.57 and 0.99, respectively.

With `CC(=O)[C@H]1CC[C@@]2(O)C3=CC(=O)[C@@H]4C[C@@H](O)[C@@H](O)C[C@]4(C)C3=CC[C@]12C`, the Ratio in series [1] is 5.4. Further, the “fractional inhibitory concentration index (FICI)” value was 0.37 in series [5], 0.67 in series [6] and 1.21 in series [7].

With `CC(C)(O)CC[C@H]1OC(C)(C)O[C@]1(C)[C@H]1CC[C@@]2(O)C3=CC(=O)[C@]4(O)C[C@@H](O)[C@@H](O)C[C@]4(C)[C@H]3CC[C@]12C`, the Ratio in series [1] is 1.8. Also, the results for the “fractional inhibitory concentration index (FICI)” value in series [5], in series [6] and in series [7] were 0.11, 0.21 and 0.63, respectively.

As to `CC(=O)O[C@H]1C[C@]2(C)[C@H]3CC[C@]4(C)[C@@H]([C@@](C)(O)[C@@H](CCC(C)(C)OC(C)=O)OC(C)=O)CC[C@@]4(O)C3=CC(=O)[C@]2(O)C[C@H]1OC(C)=O`, the Ratio in series [1] was 1.48. For the same compound, the figures for the “fractional inhibitory concentration index (FICI)” value in series [5], in series [6] and in series [7] were 0.38, 0.46 and 0.65, respectively.

On to `CC1(C)CC[C@H]([C@](C)(O)[C@H]2CC[C@@]3(O)C4=CC(=O)[C@@H]5C[C@@H](O)[C@@H](O)C[C@]5(C)[C@H]4CC[C@]23C)O1` [SHIDASTERONE], for which the Ratio in series [1] is 0.88. In addition, the entries for the “fractional inhibitory concentration index (FICI)” value in series [5], in series [6] and in series [7] were 0.096, 0.32 and 1.44, respectively.

Turning to `CC(C)(O)CC[C@@H](O)[C@](C)(O)[C@H]1CC[C@@]2(O)C3=CC(=O)[C@@H]4C[C@@H](O)[C@@H](O)[C@@H](O)[C@]4(C)[C@H]3CC[C@]12C` [INTEGRISTERONE A], the Ratio in series [1] is recorded as 0.94. Moreover, the results for the “fractional inhibitory concentration index (FICI)” value in series [5], in series [6] and in series [7] were 2.42, 1.31 and 0.8, respectively.

Turning to `CC(=O)O[C@H](CCC(C)(C)O)[C@](C)(O)[C@H]1CC[C@@]2(O)C3=CC(=O)[C@@H]4C[C@@H](O)CC[C@]4(C)[C@H]3CC[C@]12C`, the Ratio in series [1] turned out to be 1.21. The “fractional inhibitory concentration index (FICI)” value in series [5] is 0.44; in series [6] it was 0.66; in series [7], 1.03.

`CC(C)CC[C@@H](O)[C@](C)(O)[C@H]1CC[C@@]2(O)C3=CC(=O)[C@]4(O)C[C@@H](O)[C@@H](O)C[C@]4(C)[C@H]3[C@H](O)C[C@]12C` [MURISTERONE A]: in series [1], the Ratio turned out to be 0.74.
